Data set [1] can be described thus: AEGR-733/ezetimibe combination therapy patient study: percentage change in body mass. Format: in vivo, human. The source says: The primary parameter of efficacy in this study is the percentage change in body mass after 12 weeks of therapy.
Approximately 85 subjects were randomized into one of three treatment arms with equal probability. […] Enrolled patients had initial BMIs of both greater than and less than 30 kg/m^2. Patients were not instructed to implement lifestyle changes to induce weight loss. Patients were placed on a heart healthy low fat diet 4-5 weeks prior to start of dosing.
In treatment arm 1, subjects received two capsules: AEGR-733 (5 mg) plus an ezetimibe placebo. In effect, treatment arm 1 represents monotherapy with AEGR-733. In treatment arm 2, subjects received two capsules: an AEGR-733 placebo plus ezetimibe (10 mg). In effect treatment arm 2 represents monotherapy with ezetimibe. In treatment arm 3, subjects received two capsules: an AEGR-733 (5 mg) capsule plus an ezetimibe (10 mg) capsule. Treatment arm 3 patients, in effect, received a combination therapy.
After 4 weeks of treatment, subjects in arms 1 and 3 received a step-up in concentration of AEGR-733 from 5 mg to 7.5 mg for 4 weeks. Thereafter, subjects in arms 1 and 3 received a second step-up in concentration in AEGR-733 from 7.5 mg to 10 mg for 4 more additional weeks of treatment. Subjects in arm 2 continued to receive AEGR-733 matching placebo for the entire 12 weeks of treatment. Subjects randomized to ezetimibe 10 mg in arms 2 and 3 and ezetimibe placebo in arm 1 remained on these doses for the entire 12-week treatment period.
Throughout the study, changes in body weight of the subjects are measured as part of vital signs collection.
FIG. 3 depicts the same data only for those patients with a BMI of greater than 30 kg/m^2. FIG. 4 depicts the same data only for those patients with a BMI of less than or equal to 30 kg/m^2.

For data set [2] the following is noted: cited from earlier work.
Where [3] appears, read: entire cohort, after 12 weeks of daily administration (FIG. 1), AEGR-733 5 then 7.5 then 10 mg, ezetimibe 10 mg.
[4] abbreviates: patients with initial BMI greater than 30 kg/m^2 (FIG. 3), after 12 weeks.
Setting [5] is: patients with initial BMI less than 30 kg/m^2 (FIG. 4), after 12 weeks.

Where two headings read alike, the source gives them in different places.

In the case of `O=C(NC1CCN(CCCCC2(C(=O)NCC(F)(F)F)c3ccccc3-c3ccccc32)CC1)c1ccccc1-c1ccc(C(F)(F)F)cc1` [AEGR-733, N-(2,2,2-Trifluorethyl)-9-[4-[4-[[[4′-(trifluoromethyl)[1,1′biphenyl]-2-Y1]carbonyl]amino]-1-piperidinyl]butyl]9H-fluorene-9-carboxamide], the “percent change in body mass” value is listed as −1.0% in data set [1] (setting [3]), −0.4% in data set [1] (setting [4]) and −1.4% in data set [1] (setting [5]). Also, the adverse events result in data set [2] (25 mg/day) is recorded as “found to cause gastrointestinal disorders, abnormalities in liver function and/or hepatic steatosis”.

With `O=C1[C@H](CC[C@H](O)c2ccc(F)cc2)[C@@H](c2ccc(O)cc2)N1c1ccc(F)cc1` [ezetimibe], the “percent change in body mass” value in data set [1] (setting [3]) was −0.2%; in data set [1] (setting [4]) it was −1.0%; in data set [1] (setting [5]), “+0.4%”.

`Cc1cc(C)c2c3ccccc3n(Cc3ccc(C(C(=O)NC(CO)c4ccccc4)C4CCCC4)cc3)c2n1` [implitapide, (2S)-2-cyclopentyl-2-[4-[2,4-dimethyl-9H-pyrido[2,3-b]indol-9-yl)methyl]phenyl]-N-[(1S)-2-hydroxy-1-phenylethyl]ethanamide]: the adverse events result is on record as “found to cause gastrointestinal disorders, abnormalities in liver function and/or hepatic steatosis” in data set [2] (80 mg/day) and “found to cause gastrointestinal disorders, abnormalities in liver function and/or hepatic steatosis” in data set [2] (160 mg/day).

The values are drawn from US20120071458A1, “METHODS FOR TREATING OBESITY” (priority 2006, published 2012).
